Experimental data taken from patent US7754749B2, “Derivatives of a 1-phenyltriazole” (BASF Aktiengesellschaft, priority 2005, dated 2010).

Assays:
Type in all cases: in vivo
Colorado Potato Beetle = assay: Pesticidal action of synergistic mixtures, leaf dip bioassay on potato leaves; conditions: Leptinotarsa decemlineata, foliar, 120 h
Excerpt: (§1) 12. Pesticidal action of synergistic mixtures of compounds of formula I
(§2) Potato plants for Colorado potato beetle and two-leaf cotton plants for tobacco budworm were utilized for bioassays. Excised plant leaves were dipped into 1:1 acetone/water dilutions of the active compounds. After the leaves had dried, they were individually placed onto water-moistened filter paper on the bottoms of Petri dishes. Each dish was infested with 5-7 larvae and covered with a lid. Each treatment dilution was replicated 4 times. Test dishes were held at approximately 27° C. and 60% humidity. Numbers of live and morbid larvae were assessed in each dish at 5 days after treatment application, and percent mortality was calculated.
(§3) To determine if an insecticidal mixture was synergistic, Limpel's formula was used: E=X+Y−XY/100 • E=Expected % mortality of the mixture • X=% mortality of compound X, as measured independently • Y=% mortality of compound Y, as measured independently
(§4) Synergism was evident if the % observed mortality for the mixture was greater than the % expected mortality.

Tobacco Budworm = assay: Pesticidal action of synergistic mixtures, leaf dip bioassay on cotton leaves; conditions: Heliothis virescens, foliar, 120 h
Excerpt: as §1, §2, §3, §4

[1] = test system: eastern subterranean termite (Reticulitermes flavipes); assay: Activity via bait; conditions: rate of 0.005 weight %; three days after treatment; bait (treated filter paper)
Procedure: 3. Activity against Argentine ant (Linepithema humile), acrobat ant (Crematogaster spp.), carpenter ant (Camponotus floridanus), fire ant (Solenopsis invicta), house fly (Musca domestica), eastern subterranean termite (Reticulitermes flavipes), Formosan subterranean termite (Coptotermes formosanus), and German cockroach (Blattella Germanica) via bait
For termites, active ingredient in acetone was applied to filter papers. % a.i. were calculated on basis of the weight of the filter paper. Bioassays were conducted with one treated filter and ca. 30 termite workers per test Petri dish. Test dishes were maintained at 25° C. and observed daily for mortality (dead or moribund insects) or intoxication.

[2] = test system: yellowfever mosquito (Aedes aegypti); assay: Activity via glass contact; conditions: rate of 0.1 ppm, 24 hours after treatment
Excerpt: (§5) 1. Activity against Argentine ant (Linepithema humile), harvester ant (Pogonomyrmex californicus), acrobat ant (Crematogaster spp.), carpenter ant (Camponotus floridanus), fire ant (Solenopsis invicta), house fly (Musca domestica), stable fly (Stomoxys calcitrans), flesh fly (Sarcophaga sp.), yellowfever mosquito (Aedes aegyptil), house mosquito (Culex quinquefasciatus), malaria mosquito (Anopheles albimanus), German cockroach (Blattella Germanica), cat flea (Ctenocephalides felis), and brown dog tick (Rhipicephalus sanguineus) via glass contact
(§6) Glass vials were treated with 0.5 ml of a solution of active ingredient in acetone and allowed to dry. Insects or ticks were placed into each vial together with some food and moisture supply.

[3] = test system: German cockroach (Blattella Germanica); assay: Activity via glass contact; conditions: rate of 5 ppm, 24 hours after treatment
Excerpt: as §5, §6

[4] = test system: acrobat ant (Crematogaster spp.); assay: Activity via glass contact; conditions: rate of 10 ppm, 24 hours after treatment
Excerpt: as §5, §6

[5] = test system: house fly (Musca domestica); assay: Activity via glass contact; conditions: rate of 5 ppm, 24 hours after treatment
Excerpt: as §5, §6

[6] = test system: eastern subterranean termite (Reticulitermes flavipes); assay: Activity via soil contact; conditions: rate of 1 weight %, 3 days after treatment
Procedure: (§7) 2. Activity against Argentine ant (Linepithema humile), acrobat ant (Crematogaster spp.), carpenter ant (Camponotus floridanus), fire ant (Solenopsis invicta), and eastern subterranean termite (Reticulitermes flavipes) via soil contact
For termites, a thin layer of 1% agar was dispensed into Petri dishes. A thin layer of pre-treated soil was spread over the agar. For soil treatment, the active ingredient was diluted in acetone on a weight-to-weight basis and incorporated into the soil. Termite workers were introduced into each dish. Filter paper served as a food source. Test dishes were held at about 25° C. Termites were observed daily for mortality (dead or unable to stand upright and showing only weak movement).

[7] = test system: carpenter ant (Camponotus floridanus); assay: Activity via soil contact; conditions: 24 h, read-out: mortality of Camponotus floridanus
Procedure: as §7
For ants, tests were conducted in Petri dishes. A thin layer of 1% agar in water was dispensed into the dishes and Florida sandy soil was spread over the agar. The active ingredient was dissolved in acetone and dispensed over the sand. Dishes were vented to evaporate the acetone, infested with ants, and covered. A 20% honey water solution was placed in each dish. The dishes were maintained at 22° C. and observed for mortality at various time intervals.

[8] = test system: brown planthopper (nilaparvata lugens); assay: Activity against brown planthopper; conditions: rice seedlings sprayed, recorded after 24, 72 and 120 hours
Procedure: 9. Activity against brown planthopper (nilaparvata lugens)
The active compounds were formulated in 50:50 acetone:water. Potted rice seedlings were sprayed with 10 ml test solution, air dried, placed in cages and inoculated with 10 adults. Percent mortality was recorded after 24, 72 and 120 hours.

[9] = test system: cotton aphid (aphis gossypii); assay: Activity against cotton aphid; conditions: 120 h, cotton cotyledons dipped, after 5 days
Excerpt: 5. Activity against cotton aphid (aphis gossypii)
(§8) The active compounds were formulated in 50:50 acetone:water and 100 ppm Kinetic™ surfactant.
Cotton plants at the cotyledon stage (one plant per pot) were infested by placing a heavily infested leaf from the main colony on top of each cotyledon. The aphids were allowed to transfer to the host plant overnight, and the leaf used to transfer the aphids was removed. The cotyledons were dipped in the test solution and allowed to dry. After 5 days, mortality counts were made.

[10] = test system: diamond back moth (plutella xylostella); assay: Activity against diamond back moth; conditions: in Brassica oleracea, foliar, 72 h
Procedure: 11. Activity against diamond back moth (plutella xylostella)
The active compounds were formulated in 50:50 acetone:water and 0.1% (vol/vol) Alkamuls EL 620 surfactant. A 6 cm leaf disk of cabbage leaves was dipped in the test solution for 3 seconds and allowed to air dry in a Petri plate lined with moist filter paper. The leaf disk was inoculated with 10 third instar larvae and kept at 25-27° C. and 50-60% humidity for 3 days. Mortality was assessed after 72 h of treatment.

[11] = test system: cowpea aphid (aphis craccivora); assay: Activity against cowpea aphid
Procedure: 10. Activity against cowpea aphid (aphis craccivora)
The active compounds were formulated in 50:50 acetone:water. Potted cowpea plants colonized with 100-150 aphids of various stages were sprayed after the pest population has been recorded. Population reduction was recorded after 24, 72, and 120 hours.

[12] = test system: silverleaf whitefly (bemisia argentifolii); assay: Activity against silverleaf whitefly; conditions: in Gossypium hirsutum, 72 h
Procedure: 8. Activity against silverleaf whitefly (bemisia argentifolii)
as §8
Selected cotton plants were grown to the cotyledon state (one plant per pot). The cotyledons were dipped into the test solution to provide complete coverage of the foliage and placed in a well-vented area to dry. Each pot with treated seedling was placed in a plastic cup and 10 to 12 whitefly adults (approximately 3-5 day old) were introduced. The insects were colleted using an aspirator and an 0.6 cm, non-toxic Tygon® tubing (R-3603) connected to a barrier pipette tip. The tip, containing the collected insects, was then gently inserted into the soil containing the treated plant, allowing insects to crawl out of the tip to reach the foliage for feeding. The cups were covered with a reusable screened lid (150 micron mesh polyester screen PeCap from Tetko Inc). Test plants were maintained in the holding room at about 25° C. and 20-40% relative humidity for 3 days avoiding direct exposure to the fluorescent light (24 hour photoperiod) to prevent trapping of heat inside the cup. Mortality was assessed 3 days after treatment of the plants.

bean aphid (aphis fabae) = assay: Activity against bean aphid; conditions: 72 h
Excerpt: 7. Activity against bean aphid (aphis fabae)
as §8
Nasturtium plants grown in Metro mix in the 1st leaf-pair stage (variety ‘Mixed Jewle’) were infested with approximately 2-30 laboratory-reared aphids by placing infested cut plants on top of the test plants. The cut plants were removed after 24 hr. Each plant was dipped into the test solution to provide complete coverage of the foliage, stem, protruding seed surface and surrounding cube surface and allowed to dry in the fume hood. The treated plants were kept at about 25° C. with continuous fluorescent light. Aphid mortality was determined after 3 days.

[13] = test system: green peach aphid (Myzus persicae); assay: Activity against green peach aphid; conditions: 120 h, pepper leaves dipped, after 5 days, relative to check plants
Excerpt: 6. Activity against green peach aphid (Myzus persicae)
as §8
Pepper plants in the 2nd leaf-pair stage (variety ‘California Wonder’) were infested with approximately 40 laboratory-reared aphids by placing infested leaf sections on top of the test plants. The leaf sections were removed after 24 hr. The leaves of the intact plants were dipped into gradient solutions of the test compound and allowed to dry. Test plants were maintained under fluorescent light (24 hour photoperiod) at about 25° C. and 20-40% relative humidity. Aphid mortality on the treated plants, relative to mortality on check plants, was determined after 5 days.

[14] = read-out: % Mortality of Tobacco Budworm
[15] = dose rate 100 ppm, 5 days after treatment

SMILES	mortality at 0.06 ppm (Colorado Potato Beetle; read-out: % Mortality of Colorado Potato Beetle) [%]	mortality at 0.03 ppm (Tobacco Budworm; [14]) [%]	mortality at 0.06 ppm (Tobacco Budworm; [14]) [%]	mortality at 100 ppm (Colorado Potato Beetle; [15]) [%]	mortality of Reticulitermes flavipes [1] [%]	mortality at 0.1 ppm [2] [%]	mortality at 5 ppm [3] [%]	mortality of Crematogaster spp. [4] [%]	mortality at 5 ppm [5] [%]	mortality of Reticulitermes flavipes [6] [%]	mortality at 10 ppm [7] [%]	mortality at 300 ppm [8] [%]	mortality at 300 ppm [9] [%]	mortality at 300 ppm [10] [%]	mortality at 300 ppm [11] [%]	mortality at 100 ppm (Tobacco Budworm; [15]) [%]	mortality at 300 ppm (Tobacco Budworm; dose rate 300 ppm, 5 days after treatment) [%]	mortality at 300 ppm [12] [%]	mortality at 300 ppm (bean aphid (aphis fabae)) [%]	mortality at 300 ppm [13] [%]
CC1(C)C(C=C(Cl)Cl)C1C(=O)OC(C#N)c1cccc(Oc2ccccc2)c1 (stereo not drawn) [alpha-cypermethrin, reference compound]	17.5	0	7.2	–	–	–	–	–	–	–	–	–	–	–	–	–	–	–	–	–
Cc1nc(C2(C)CC2(Cl)Cl)nn1-c1c(Cl)cc(C(F)(F)F)cc1Cl (stereo not shown) [I-3, 3-(2,2-Dichloro-1-methyl-cyclopropyl)-1-(2,6-dichloro-4-trifluoromethyl-phenyl)-5-methyl-1H-[1,2,4]triazole]	–	–	–	12.5	100	100	100	100	100	100	100	100	100	100	100	0	71.4	100	100	100
Cc1nc(C2CC2(Cl)Cl)nn1-c1c(Cl)cc(C(F)(F)F)cc1Cl (stereo not shown) [I-2, 1-(2,6-dichloro-4-trifluoromethylphenyl)-3-(2,2-dichlorocyclopropyl)-5-methyl-1,2,4-triazole]	–	–	–	–	–	–	–	–	–	–	–	100	–	–	100	–	–	–	–	–
